Structures are written as SMILES.

One test concerns U-937. The test is described as follows: Inhibition of OCDO production by PBPE in U-937. The conditions noted are these: Homo sapiens, 40 μM PBPE, 48 hours. In kind it is cell-based. The procedure: (§1) An analogous experiment was reproduced with different cell lines, with the cells tested being incubated for 48 hours in a 40 μM solution of PBPE. It was noted that the OCDO was 100% inhibited for all the lines in the following table that were tested:
(§2) Generally, in order to establish the percentages of OCDO inhibition from the thin-layer chromatography (TLC) plates obtained as in assay 2, the radioactive metabolites are identified and quantified on the basis of said plates using a europium-sensitive plate of GP Phosphor screen type (GE Healthcare) and a Storm 840 phosphorimagor (GE Healthcare). The proportion of radiolabeled oxysterols is determined on the autoradiogram obtained by densitometry using the Image Quant 5.2 software. The percentage is calculated on the basis of the ratio between the amount of oxysterols quantified divided by the sum of the amounts of oxysterols (CEE+CE+CT+OCDO). Since the CEE (CE ester) originates exclusively from the CE, the percentage CE is calculated on the basis of the ratio (CE+CEE)/(CE+CEE+CT+OCDO).

The next test has as its system B-16-F10. Description: Inhibition of OCDO production by PBPE in B-16-F10. It is filed as cell-based, murine. The conditions noted are these: Mus musculus, B16-F10, 40 μM PBPE, 48 hours. Here is the method:
as §1, §2

The target of test [1] is T1, ChEH (Homo sapiens, UniProt Q15125).
T1 construct: MCF7 tumor cells, which originate from the American Tissue Culture Collection (ATCC), were used; host or cells: MCF7
The test is described as follows: Inhibition of ChEH activity in MCF7 cells (TLC of [14C]CE conversion). In kind it is cell-based. Conditions: tamoxifen 0.01-5 μM with [14C]CEα; PBPE 0.01-10 μM with [14C]CEβ. The procedure: For this experiment, an aminoalkyl sterol included in French patent 2 838 741 (and also see: de Medina et al., J Med Chem: 2009, vol. 52, No. 23, p. 7765-7777), having the formula: 6-N-[2-(3H-imidazol-4-yl)ethylamino]cholestane-3β,5α-diol (DDA), was chosen. […]
A thin-layer chromatography was carried out, the plate of which has been reproduced in FIG. 23. On this plate, the incubation is carried out, for lane 1, with [^14C]CE; for lane 2, with [^14C]CT; for lane 3, with the vehicle solvent, which is the same as that used for assays 1 to 5; for lane 4, with [14C]CE and 0.1 μM of the aminoalkyl sterol; and for lane 5, with [^14C]CE and a concentration of 1 μM of the aminoalkyl sterol.

Another test relates to HT-29. The test is described as follows: Inhibition of OCDO production by PBPE in HT-29. In kind it is cell-based. Conditions: Homo sapiens, 40 μM PBPE, 48 hours. Here is the method: as §1, §2
A further test deals with SH-N-SH. The test is described as follows: Inhibition of OCDO production by PBPE in SH-N-SH. It is filed as cell-based. The conditions noted are these: Homo sapiens, 48 h, read-out: Inhibition of OCDO production. The procedure:
as §1, §2

Another test has as its system TS/A cells. Description: Tumor size of TS/A tumors implanted in BALB/c mice, intratumoral treatment. It is filed as in vivo. The conditions noted are these: PBPE 40 μM, 100 μl intratumorally once a day. Here is the method:
A cell culture of TS/A cells was first performed. These TS/A cells are mouse mammary adenocarcinomas (see Nanni P et al., Clin. Exp. Metastasis, 1983 October-December; 1(4): 373-80). The cells are cultured, at 37° C. under 5% CO2, in a DMEM medium supplemented with 2 g/liter of sodium carbonate, 1.2 mM of glutamine (pH 7.4 at 23° C.), 5% of fetal bovine serum (Gibco) and 2.5 ml of antibiotics per liter of medium (penicillin/streptomycin).
The TS/A cells are recovered with trypsin, washed twice and suspended in PBS buffer. The TS/A cells (approximately 4×10^6 […] cells/0.1 ml) are then injected subcutaneously into the flank of 6-week-old female BALB/c mice (supplied by Charles River). […] The animals (10 mice per group) are monitored regularly for tumor development. The volume of the tumors is calculated according to the following formula: L×l^2×0.5 (L is the length and l is the width of the tumor). The experiment was reproduced twice. The results are given in FIG. 18 (the arrow indicates the beginning of the treatment).

The test system of a further test is C6. The test is described as follows: Inhibition of OCDO production by PBPE in C6. It is filed as cell-based. The conditions noted are these: Rattus norvegicus, 40 μM PBPE, 48 hours. The procedure:
as §1, §2

A further test concerns P19. The test is described as follows: Inhibition of OCDO production by PBPE in P19. It is filed as cell-based, murine. Conditions: Mus musculus, 40 μM PBPE, 48 hours. The procedure: as §1, §2
For a further test, the system named is OCDO. Description: OCDO content of TS/A tumors by GC/MS. It is filed as in vivo, mice. Conditions: PBPE 40 μM, 100 μl intratumorally once a day. The procedure:
5 volumes (relative to the mass removed) of buffer (50 mM Tris-HCl, 150 mM KCl, pH=7.4) are added. The tumors are ground and the homogenates are centrifuged for 5 minutes at 2500 rpm at 4° C. […] After centrifugation (to separate the phases), the organic phase is recovered. The organic phase is evaporated to dryness and then the residue is taken up with 0.5 ml of chloroform. The organic extracts are filtered on 0.5 ml silica cartridges. The polar sterols are eluted sequentially:
1) 0.5 ml of a hexane/chloroform mixture (1/1), 2) 0.5 ml of chloroform, 3) 0.5 ml of ethyl acetate and methanol.
The ethyl acetate fractions are evaporated, silylated (50 μl 1/1 acetonitrile/BSTFA) and then analyzed by GC/MS (2 μl) according to the conditions described above.

The target of test [2] is T2, ChEH (Rattus norvegicus, UniProt Q9JJ46).
T2 construct: 150 μg of rat liver microsome proteins are incubated; from tissue; host or cells: rat liver microsomes
T2 sequence (Q9JJ46 1-230): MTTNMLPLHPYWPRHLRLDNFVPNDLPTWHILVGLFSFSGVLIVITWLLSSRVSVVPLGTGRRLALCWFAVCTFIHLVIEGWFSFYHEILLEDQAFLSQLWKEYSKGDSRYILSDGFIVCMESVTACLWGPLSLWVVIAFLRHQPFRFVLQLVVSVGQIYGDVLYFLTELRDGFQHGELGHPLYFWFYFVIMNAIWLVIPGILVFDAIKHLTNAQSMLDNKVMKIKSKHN
Description: Determination of the Ki for ChEH on rat liver microsome proteins (Dixon method). It is filed as biochemical. Conditions: 150 μg rat liver microsome proteins, [14C]CEα. (Liver microsomes are vesicles of endoplasmic reticulum, rich in cytochrome P450 enzymes.)

Another test has as its system HeLa. The test is described as follows: Inhibition of OCDO production by PBPE in HeLa. It is filed as cell-based. Conditions: Homo sapiens, 40 μM PBPE, 48 hours. Here is the method: as §1, §2
A further test deals with Saos-2. The test is described as follows: Inhibition of OCDO production by PBPE in Saos-2. In kind it is cell-based. Conditions: Homo sapiens, 40 μM PBPE, 48 hours. The procedure: as §1, §2
Another test concerns MDA-MB-231. The test is described as follows: Inhibition of OCDO production by PBPE in MDA-MB-231. It is filed as cell-based. The conditions noted are these: Homo sapiens, 40 μM PBPE, 48 hours. The procedure: as §1, §2
A further test relates to A-549. Description: Inhibition of OCDO production by PBPE in A-549. It is filed as cell-based. The conditions noted are these: Homo sapiens, A549, 40 μM PBPE, 48 hours. Here is the method: as §1, §2

T1 sequence (Q15125 whole entry): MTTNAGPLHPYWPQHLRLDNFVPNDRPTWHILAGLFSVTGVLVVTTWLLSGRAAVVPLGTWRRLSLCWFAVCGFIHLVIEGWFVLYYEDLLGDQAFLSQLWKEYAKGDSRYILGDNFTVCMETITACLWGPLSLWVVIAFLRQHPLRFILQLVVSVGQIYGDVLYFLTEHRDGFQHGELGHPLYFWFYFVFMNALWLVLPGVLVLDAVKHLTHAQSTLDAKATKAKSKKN

A word on the inhibition: it is the drop in the measured response relative to a control, in per cent. The Ki is the dissociation constant of the complex between target and ligand, obtained from inhibition or displacement. Read a low Ki as a stronger hold on the target. `c1ccc(Cc2ccc(OCCN3CCCC3)cc2)cc1` [PBPE, N,N-pyrrolidino-[(4-benzyl)phenoxy]ethanamine]: the inhibition at 40 µM in the test with U-937, in the test with B-16-F10, with HT-29, in the test with SH-N-SH, in the test with C6 and in the test with P19 was 100% in each case. Besides, the inhibition at 40 µM with HeLa, in the test with Saos-2, in the test with MDA-MB-231 and in the test with A-549 was 100% each time. At ChEH [1], the “inhibition of the ChEH activity (3 days) in MCF7 cells” value is recorded as “Dose-dependent inhibition”. In addition, the “Tumor size (% control)” value in the test with TS/A cells (Day 28) is 71.6 ± 7 % control; in the test with TS/A cells (Day 37), 54.5 ± 8 % control. Also, the entries for the “OCDO (% control)” value with OCDO (Day 28) and in the test on OCDO (Day 37) were 22.5 ± 5 % control and 9.6 ± 5 % control, respectively. Further, at ChEH [2], the affinity corresponds to a Ki of 26.8 ± 6 nM.

The record behind these values is patent US20170176446A1, “Methods for Determining the Oncogenic Condition of Cell, Uses Thereof, and Methods for Treating Cancer” (INSERM (INSTITUT NATIONAL DE LA SANTE ET DE LA RECHERCHE …, priority 2009, published 2017).
